Our source for the logP and chromatographic logP values is patent US8946234B2, “Halogen-substituted compounds” (Bayer CropScience AG, priority 2008, dated 2015).

A short description of the first series: physchem. The format is physicochemical.
Settings: not given
The method, boiled down:
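Reversed-phase C18 HPLC (50×4.6 mm, 1.8 micron), 55 °C, 2.0 ml/min, acetonitrile/water with formic acid. Linear gradient 10% to 95% acetonitrile over 4.25 min, then 95% for 1.25 min. logP derived from retention per EEC Directive 79/831 Annex V.A8; MS detection.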
Consider `O=C(NCC=CCl)c1cc(NC(=O)c2cnc(C(F)(F)C(F)(F)C(F)(F)F)nc2C(F)(F)F)ccc1Cl` [Ib-17], for which the logP was 3.92^a).
The same measure, in the same setting: as for `Cn1nc(-c2cc(C(F)(F)F)cc(C(F)(F)F)c2)c(C(F)(F)F)c1C(=O)Nc1ccc(Cl)c(C(=O)NCC(F)(F)F)c1` [Ik-258], the figure is 4.46^a); as for `O=C(NCC=CCl)c1cc(NC(=O)c2cnc(C(F)(F)C(F)(F)F)nc2C(F)F)ccc1Cl` [Ib-32], 3.29^a).
On the same count and under the same terms, with `Cn1nc(C(F)(F)C(F)(F)F)c(C(F)(F)F)c1C(=O)Nc1cc2c(cc1F)COC2=O` [Ik-105] the figure was 3.27^a); with `C=CCNC(=O)c1cc(NC(=O)c2c(C(F)(F)F)c(C(F)(F)C(F)(F)F)nn2C)ncc1Cl` [Ik-316], 3.38^a).
Consider `Cn1nc(C(F)(F)C(F)(F)F)c(C(F)(F)F)c1C(=O)Nc1cc(Cl)c(I)c(C(=O)NCc2ccccc2)c1` [Ik-205], for which the logP is 4.45^a).
Still for that read-out and setting: as for `Cn1nc(C(F)(F)F)c(Br)c1C(=O)Nc1ccc(Cl)c(C(=O)NC2CC2)c1` [Ik-21], the figure is 2.75^a).
With `Cn1nc(C(F)(F)C(F)(F)F)c(C(F)(F)F)c1C(=O)Nc1ccc(Cl)c(C(=O)NCc2ccc(F)cn2)c1` [Ik-80], the logP is on record as 4.75^a).
On the same count and under the same terms, with `CCc1c(C(F)(F)C(F)(F)F)nn(C)c1C(=O)Nc1cccc(C(=O)NC2CC2)c1` [Ik-263] the figure was 3.05^a).
Take `O=C(NCc1ccccc1)c1cc(NC(=O)c2cnc(C(F)(F)C(F)(F)C(F)(F)F)nc2C(F)(F)F)ccc1Cl` [Ib-18]: the logP was 4.13^a).
On to `O=C(NCC(F)(F)F)c1cc(NC(=O)c2cnc(C(F)(F)C(F)(F)C(F)(F)F)nc2C(F)(F)F)ccc1Cl` [Ib-16], for which the logP is 3.88^a).
Turning to `Cn1nc(C(F)(F)C(F)(F)F)c(C(F)(F)F)c1C(=O)Nc1cc(Br)c(Br)c(C(=O)NCc2ccccc2)c1` [Ik-208], the logP was 4.42^a).
The same measure, in the same setting: with `Cn1nc(OCC(F)(F)F)c(Br)c1C(=O)Nc1ccc(Cl)c(C(=O)NCC(F)(F)F)c1` [Ik-257] the figure was 3.26^a).

Still in this series, the particulars now being: HPLC method a), eluent acetonitrile/water with formic acid; read-out: logP.
With `O=C(O)c1cnc(C(F)(F)C(F)(F)C(F)(F)F)nc1C(F)(F)F` [2-(Heptafluoropropyl)-4-(trifluoromethyl)pyrimidine-5-carboxylic acid], the chromatographic logP was determined as 2.23.

Staying with this series, now noted: HPLC phase inversion (reversed-phase) C18 column, HPLC method a), eluent acetonitrile/water with formic acid; read-out: logP.
`Cn1nc(C(F)(F)F)c(C(F)(F)F)c1C(=O)O` [1-Methyl-3,4-bis(trifluoromethyl)-1H-pyrazole-5-carboxylic acid]: the chromatographic logP was 1.47.

The next series in a line: logP by HPLC on a C18 phase inversion column, EEC Directive 79/831 Annex V.A8, method b) (HP1100, 5-95% acetonitrile in 1.70 min). The format is physicochemical. The note with it: HPLC method b). The method, then: ^b) Note regarding the determination of the log P values and mass detection: The log P values given were determined in accordance with EEC Directive 79/831 Annex V.A8 by HPLC (High Performance Liquid Chromatography) on a phase inversion column (C18). HP1100; 50*4.6 Zorbax Eclipse Plus C18 1.8 micron; eluent A: acetonitrile (0.1% formic acid); eluent B: water (0.08% formic acid); linear gradient from 5% acetonitrile to 95% acetonitrile in 1.70 min, then 95% acetonitrile for a further 1.00 min; oven temperature 55° C.; flow: 2.0 ml/min. The mass detection is carried out via the mass detector Micromass ZQ2000 from Waters.
For `Cc1csc(C(NC(=O)c2cc(NC(=O)c3c(C(F)(F)F)c(C(F)(F)C(F)(F)F)nn3C)ccc2Cl)C(F)(F)F)n1` (stereo not drawn) [Ik-277], the logP is recorded as 4.00^b).
Same read-out and setting: as for `Cn1nc(C(F)(F)C(F)(F)F)c(C(F)(F)F)c1C(=O)Nc1ccc(Cl)c(C(=O)NCc2ccncc2)c1` [Ik-313], the figure is 1.93^b).
The same measure, in the same setting: as for `Cc1cccc(CNC(=O)c2cc(NC(=O)c3c(C(F)(F)F)c(C(F)(F)C(F)(F)F)nn3C)ccc2Cl)c1` [Ik-304], the figure is 3.94^b); as for `Cn1nc(C(F)(F)C(F)(F)F)c(C(F)(F)F)c1C(=O)Nc1ccc(Cl)c(C(=O)NC(C)(C)C#N)c1` [Ik-274], 3.37^b).
For the compound `CC(NC(=O)c1cc(NC(=O)c2c(C(F)(F)F)c(C(F)(F)C(F)(F)F)nn2C)ccc1Cl)c1ccccc1` (stereo not drawn) [Ik-38], the logP is given as 3.89^b).
On to `Cn1nc(C(F)(F)C(F)(F)F)c(C(F)(F)F)c1C(=O)Nc1ccc(Cl)c(C(=O)NCc2ccccc2Cl)c1` [Ik-282], for which the logP is recorded as 4.05^b).
For the compound `C[C@H]1C[C@H]1NC(=O)c1cc(NC(=O)c2c(C(F)(F)F)c(C(F)(F)C(F)(F)F)nn2C)ccc1Cl` [Ik-279], the logP was 3.37^b).
Take `Cn1nc(C(F)(F)C(F)(F)F)c(C(F)(F)F)c1C(=O)Nc1ccc(Cl)c(C(=O)NCc2ccon2)c1` [Ik-43]: the logP was 3.02^b).
Same read-out and setting: as for `C[C@H](NC(=O)c1cc(NC(=O)c2c(C(F)(F)F)c(C(F)(F)C(F)(F)F)nn2C)ccc1Cl)C(F)(F)F` [Ik-294], the figure is 3.63^b); as for `Cn1nc(C(F)(F)C(F)(F)F)c(C(F)(F)F)c1C(=O)Nc1ccc(Cl)c(C(=O)NCCc2ccc(Cl)cc2)c1` [Ik-40], 4.23^b); as for `Cn1nc(C(F)(F)C(F)(F)F)c(C(F)(F)F)c1C(=O)Nc1ccc(Cl)c(C(=O)NC(C)(C)C=C(Cl)Cl)c1` [Ik-44], 4.28^b).
Same read-out and setting: with `CN(C(=O)c1cc(NC(=O)c2c(C(F)(F)F)c(C(F)(F)C(F)(F)F)nn2C)ccc1Cl)C1CC1` [Ik-31] the figure was 3.51^b).
Still for that read-out and setting: as for `Cn1nc(C(F)(F)C(F)(F)F)c(C(F)(F)F)c1C(=O)Nc1ccc(Cl)c(C(=O)NC2CC2F)c1` (stereo not drawn) [Ik-311], the figure is 3.28^b); as for `Cn1nc(C(F)(F)C(F)(F)F)c(C(F)(F)F)c1C(=O)Nc1ccc(Cl)c(C(=O)NCc2cccc(F)c2)c1` [Ik-49], 3.78^b).
As to `Cn1nc(C(F)(F)C(F)(F)F)c(C(F)(F)F)c1C(=O)Nc1ccc(Cl)c(C(=O)NC2CCOCC2)c1` [Ik-285], the logP was 3.06^b).
Same read-out and setting: with `CCc1c(C(F)(F)C(F)(F)F)nn(C)c1C(=O)Nc1ccc(Cl)c(C(=O)NCc2ccccc2)c1` [Ik-272] the figure was 3.68^b); with `CC(C#N)NC(=O)c1cc(NC(=O)c2c(C(F)(F)F)c(C(F)(F)C(F)(F)F)nn2C)ccc1Cl` (stereo not drawn) [Ik-292], 3.02^b).
On the same count and under the same terms, as for `Cn1nc(C(F)(F)C(F)(F)F)c(C(F)(F)F)c1C(=O)Nc1ccc(Cl)c(C(=O)NC2(C(F)(F)F)CC2)c1` [Ik-296], the figure is 3.58^b); as for `Cn1nc(C(F)(F)C(F)(F)F)c(C(F)(F)F)c1C(=O)Nc1ccc(Cl)c(C(=O)NCc2nc(C(F)(F)F)cs2)c1` [Ik-273], 3.75^b); as for `Cn1nc(C(F)(F)C(F)(F)F)c(C(F)(F)F)c1C(=O)Nc1ccc(Cl)c(C(=O)NCC(C)(C)CF)c1` [Ik-42], 3.68^b).
Still for that read-out and setting: as for `CCCC(NC(=O)c1cc(NC(=O)c2c(C(F)(F)F)c(C(F)(F)C(F)(F)F)nn2C)ccc1Cl)C(F)(F)F` (stereo not drawn) [Ik-298], the figure is 4.11^b); as for `Cn1nc(C(F)(F)C(F)(F)F)c(C(F)(F)F)c1C(=O)Nc1ccc(Cl)c(C(=O)NCC(F)(F)C(F)(F)F)c1` [Ik-302], 3.78^b); as for `COC(=O)CNC(=O)c1cc(NC(=O)c2c(C(F)(F)F)c(C(F)(F)C(F)(F)F)nn2C)ccc1Cl` [Ik-34], 3.04^b).
`Cn1nc(C(F)(F)C(F)(F)F)c(C(F)(F)F)c1C(=O)Nc1ccc(Cl)c(C(=O)NCCOCC(F)(F)F)c1` [Ik-281]: the logP is listed as 3.53^b).
Still for that read-out and setting: as for `Cn1nc(C(F)(F)C(F)(F)F)c(C(F)(F)F)c1C(=O)Nc1ccc(Cl)c(C(=O)NC2C=CS(=O)(=O)C2)c1` (stereo not drawn) [Ik-278], the figure is 2.80^b).
Regarding `Cn1nc(C(F)(F)C(F)(F)F)c(C(F)(F)F)c1C(=O)Nc1ccc(Cl)c(C(=O)NC(C2CC2)C2CC2)c1` [Ik-61], the logP is 4.00^b).
Same read-out and setting: as for `Cn1nc(C(F)(F)C(F)(F)F)c(C(F)(F)F)c1C(=O)Nc1ccc(Cl)c(C(=O)NC(C)(C)CS(C)(=O)=O)c1` [Ik-301], the figure is 3.02^b); as for `Cn1nc(C(F)(F)C(F)(F)F)c(C(F)(F)F)c1C(=O)Nc1ccc(Cl)c(C(=O)NCC#N)c1` [Ik-48], 2.93^b).
Same read-out and setting: as for `C#CC(C)NC(=O)c1cc(NC(=O)c2c(C(F)(F)F)c(C(F)(F)C(F)(F)F)nn2C)ccc1Cl` (stereo not drawn) [Ik-293], the figure is 3.28^b); as for `Cn1nc(C(F)(F)C(F)(F)F)c(C(F)(F)F)c1C(=O)Nc1ccc(Cl)c(C(=O)NC2COC2)c1` [Ik-32], 2.76^b).
